System: corneodesmosine
Assay: Desquamating activity: immunodetection of corneodesmosine on varnish strippings of dry skin after incubation with product
Assay type: biochemical
Conditions: 7% by weight in Arlacel/Myrj base, 5 days at 37° C., 70% relative humidity
Description: In this test, corneodesmosine is sought by immunodetection after incubation. Corneodesmosine is one of the key markers of desquamation of […]. It is studied on an immunoblot after electrophoresis separation and transfer onto a membrane.
3×3.5 cm rectangles are cut out of varnish strippings performed on the calf area of legs bearing dry skin. They are each treated with 42 mg of product (4 mg/cm^2). Controls and tests are performed in parallel. A blank without product is prepared under the same conditions.
The tests are incubated at 37° C. and 70% relative humidity for 5 days. The controls are stored for 5 days at −20° C. Thus, 5 tests and 5 controls are obtained.
For each of the samples, acetone powders are prepared and weighed out. The proteins are extracted with 100 μl/mg of whole Laemmli buffer. They are assayed according to the Bradford method. The protein content of each sample is adjusted and allows a direct comparison of the various samples. The proteins are separated by SDS-Page electrophoresis on 12% acrylamide gel.
After transferring the proteins onto a PVDF membrane, the immunodetection is performed with the anticorneodesmosine antibody G3619 (Guy Serre) at 1/12500 according to a standard western blot technique. Revelation is performed by chemiluminescence. The bands detected by the Fluor Smax machine (Biorad) are quantified with the quantity-one software (Biorad).

| Structure (SMILES) | degradation of corneodesmosine (result in words) |
| --- | --- |
| CC(O)C[C@@H]1OC[C@@H](O)[C@H](O)[C@H]1O (stereo partly drawn) [C-β-D-xylopyranoside-2-hydroxypropane] | positive effect |
| OCC(O)CO [Glycerol] | substantial degradation of corneodesmosine |

Source: patent publication US9421157B2, “Use of C-glycoside derivatives as pro-desquamating active agents” (L'OREAL, priority 2006, dated 2016)
